IC50 and GI50 data for 20 compounds are collected here from patent US9580390B2, “Indazole compounds as kinase inhibitors and method of treating cancer with same” (University Health Network, priority 2011, dated 2017).

The target in one assay is T1, human TTK (Homo sapiens, UniProt P33981).
T1 construct: amino terminal GST fusion of full length human TTK; purchased Invitrogen
T1 sequence (P33981 1-857): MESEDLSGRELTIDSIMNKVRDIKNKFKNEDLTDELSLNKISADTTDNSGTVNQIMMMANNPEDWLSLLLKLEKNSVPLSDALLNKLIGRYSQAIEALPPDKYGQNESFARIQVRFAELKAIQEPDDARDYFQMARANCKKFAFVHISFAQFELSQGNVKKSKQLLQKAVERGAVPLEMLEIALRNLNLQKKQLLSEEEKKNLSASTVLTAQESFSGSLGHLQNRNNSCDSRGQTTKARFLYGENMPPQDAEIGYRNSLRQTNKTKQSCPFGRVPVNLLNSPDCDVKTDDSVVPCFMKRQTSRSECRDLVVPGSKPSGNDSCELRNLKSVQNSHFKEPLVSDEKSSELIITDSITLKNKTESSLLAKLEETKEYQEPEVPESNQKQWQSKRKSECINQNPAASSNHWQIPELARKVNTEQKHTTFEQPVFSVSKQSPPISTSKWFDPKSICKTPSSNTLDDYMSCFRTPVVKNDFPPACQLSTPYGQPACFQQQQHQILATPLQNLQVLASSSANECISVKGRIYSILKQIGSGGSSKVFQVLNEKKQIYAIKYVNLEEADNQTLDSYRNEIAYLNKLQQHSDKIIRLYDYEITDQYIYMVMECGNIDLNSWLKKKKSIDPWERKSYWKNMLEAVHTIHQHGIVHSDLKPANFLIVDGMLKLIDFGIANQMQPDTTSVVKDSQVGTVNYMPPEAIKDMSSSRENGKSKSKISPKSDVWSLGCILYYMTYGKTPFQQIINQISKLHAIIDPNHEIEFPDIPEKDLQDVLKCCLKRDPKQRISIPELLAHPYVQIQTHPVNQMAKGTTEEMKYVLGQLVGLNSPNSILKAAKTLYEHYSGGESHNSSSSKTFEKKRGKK
The experiment in a line: TTK inhibition assay (indirect ELISA). It is filed as biochemical. The conditions noted are these: read-out: TTK IC50 Range.

Assay [1] relates to colon cancer cells (HCT116). The experiment in a line: Cancer cell line growth inhibition (SRB assay). Format: cell-based. Particulars: read-out: Cancer Cell Line GI50 Range HCT116.
For assay [2], the system named is ovarian cancer cells (PA-1). Kind of assay: Cancer cell line growth inhibition (SRB assay). Format: cell-based. Particulars: read-out: Cancer Cell Line GI50 Range PA-1. Background: In SRB staining, fixed cells bind dye roughly in proportion to their protein.
Where [3] appears, read: Homo sapiens, HCT-116, HCT116 colon cancer cells, SRB assay.
Where [4] appears, read: PA-1 ovarian cancer cells, SRB assay.

Structures are written as SMILES. Where two headings read alike, the source gives them in different places.

In general, IC50 refers to the point on the concentration scale where inhibition reaches its midpoint. The GI50 is the concentration giving 50% growth inhibition. On to `O=C(NCC1(CN2CCOCC2)CC1)c1ccc2[nH]nc(-c3ccc(N4CCOCC4)cc3)c2c1` [Example A494, N-((1-(morpholinomethyl)cyclopropyl)methyl)-3-(4-morpholinophenyl)-1H-indazole-5-carboxamide], for which, on human TTK, the IC50 is less than 100 nM. Also, the GI50 in assay [1] (setting [3]) and in assay [2] (setting [4]) was greater than 500 nM each time.

`O=C(NC(c1ccccn1)C1CCCC1)c1ccc2[nH]nc(-c3ccc(OC4CCN(C5COC5)CC4)cc3)c2c1` (stereo not drawn) [Example A319, N-(cyclopentyl(pyridin-2-yl)methyl)-3-(4-((1-(oxetan-3-yl)piperidin-4-yl)oxy)phenyl)-1H-indazole-5-carboxamide]: on human TTK, the IC50 is less than 100 nM. In addition, the GI50 in assay [1] (Homo sapiens, HCT-116) is 100 to 500 nM; in assay [2] (Homo sapiens, PA-1), less than 100 nM.

On to `CN1C2COCC1CC(Oc1ccc(-c3n[nH]c4ccc(C(=O)NC(c5ccccn5)C5CCCC5)cc34)cc1)C2` [Example A392, N-(cyclopentyl (pyridin-2-yl)methyl)-3-(4-(((1R,5S,7s)-9-methyl-3-oxa-9-azabicyclo [3.3.1]nonan-7-yl)oxy)phenyl)-1H-indazole-5-carboxamide], for which the IC50 on human TTK was less than 100 nM. Besides, the GI50 in assay [1] (Homo sapiens, HCT-116) was less than 100 nM; in assay [2] (Homo sapiens, PA-1), less than 100 nM.

For the compound `O=CN1CCC(Oc2ccc(-c3n[nH]c4ccc(C(=O)NC(c5ccsc5)C5CCC5)cc34)cc2)CC1` (stereo not drawn) [Example A330, N-(cyclobutyl(thiophen-3-yl)methyl)-3-(4-((1-formylpiperidin-4-yl)oxy)phenyl)-1H-indazole-5-carboxamide], the IC50 at human TTK is less than 100 nM. In addition, the GI50 in assay [1] (Homo sapiens, HCT-116) is less than 100 nM; in assay [2] (Homo sapiens, PA-1) it was less than 100 nM.

As for `O=C(NC(c1ccccc1)C1CC1)c1ccc2[nH]nc(-c3ccc(N[C@H]4CC[C@H](O)CC4)cc3)c2c1` (stereo partly drawn) [Example A106, trans-N-(cyclopropyl(phenyl)methyl)-3-(4-(((1r,4r)-4-hydroxycyclohexyl)amino)phenyl)-1H-indazole-5-carboxamide], on human TTK, the IC50 was less than 100 nM. Besides, the GI50 in assay [1] (setting [3]) and in assay [2] (setting [4]) was less than 100 nM each time.

Regarding `O=C(N[C@@H](c1ccccn1)C1CC1)c1ccc2[nH]nc(-c3ccc(OC4CC5CCC(C4)N5C4COC4)cc3)c2c1` (stereo partly drawn) [Example A352, N-((R)-cyclopropyl(pyridin-2-yl)methyl)-3-(4-(((1R,3R,5S)-8-(oxetan-3-yl)-8-azabicyclo[3.2.1]octan-3-yl)oxy)phenyl)-1H-indazole-5-carboxamide], the IC50 at human TTK was less than 100 nM. For the same compound, the GI50 in assay [1] (Homo sapiens, HCT-116) was 100 to 500 nM; in assay [2] (Homo sapiens, PA-1) it was 100 to 500 nM.

For the compound `CN1CCC(Oc2ccc(-c3n[nH]c4ccc(C(=O)NCC5(c6ccncc6)CCCCC5)cc34)cc2)CC1` [Example A480, 3-(4-((1-methylpiperidin-4-yl)oxy)phenyl)-N-((1-(pyridin-4-yl)cyclohexyl)methyl)-1H-indazole-5-carboxamide], the IC50 on human TTK was less than 100 nM. In addition, the GI50 in assay [1] (setting [3]) and in assay [2] (setting [4]) was 100 to 500 nM throughout.

Consider `CN1CCC(Oc2ccc(-c3n[nH]c4ccc(C(=O)NCC5(c6ccccc6)CC5(C)C)cc34)cc2)CC1` (stereo not drawn) [Example A431, N-((2,2-dimethyl-1-phenylcyclopropyl)methyl)-3-(4-((1-methylpiperidin-4-yl)oxy)phenyl)-1H-indazole-5-carboxamide], for which, on human TTK, the IC50 is less than 100 nM. Further, the GI50 in assay [1] (setting [3]) and in assay [2] (setting [4]) was 100 to 500 nM in each case.

Take `O=C(NCC1(N2CCOCC2)CCCCC1)c1ccc2[nH]nc(-c3ccc(O[C@@H]4CCC[C@H](O)C4)cc3)c2c1` (relative stereo) [Example A497, cis-3-(4-(((1R,3S)-3-hydroxycyclohexyl)oxy)phenyl)-N-((1-morpholinocyclohexyl)methyl)-1H-indazole-5-carboxamide]: the IC50 at human TTK was less than 100 nM. The GI50 in assay [1] (setting [3]) and in assay [2] (setting [4]) was 100 to 500 nM in each case.

`CC(C)C(NC(=O)c1ccc2[nH]nc(-c3ccc(OC4CC5CCC(C4)N5C)cc3)c2c1)c1ccccn1` (stereo not drawn) [Example A396, N-(2-methyl-1-(pyridin-2-yl)propyl)-3-(4-((8-methyl-8-azabicyclo [3.2.1]octan-3-yl)oxy)phenyl)-1H-indazole-5-carboxamide]: the IC50 on human TTK is less than 100 nM. Further, the GI50 in assay [1] (HCT116) and in assay [2] (PA-1) was less than 100 nM throughout.

In the case of `CCC(CC)(CNC(=O)c1ccc2[nH]nc(-c3ccc(OC4CCN(C5COC5)CC4)cc3)c2c1)N1CCOCC1` [Example A466, N-(2-ethyl-2-morpholinobutyl)-3-(4-((1-(oxetan-3-yl)piperidin-4-yl)oxy)phenyl)-1H-indazole-5-carboxamide], at human TTK, the IC50 was less than 100 nM. Further, the GI50 in assay [1] (Homo sapiens, HCT-116) was 100 to 500 nM; in assay [2] (Homo sapiens, PA-1), less than 100 nM.

On to `CN1CCC(Oc2ccc(-c3n[nH]c4ccc(C(=O)NCC5(c6ccccc6F)CCOCC5)cc34)cc2)CC1` [Example A476, N-((4-(2-fluorophenyl)tetrahydro-2H-pyran-4-yl)methyl)-3-(4-((1-methylpiperidin-4-yl)oxy)phenyl)-1H-indazole-5-carboxamide], for which the IC50 at human TTK was less than 100 nM. Besides, the GI50 in assay [1] (setting [3]) and in assay [2] (setting [4]) was 100 to 500 nM throughout.

Consider `CC(C)(O)C1CCN(c2ccc(-c3n[nH]c4ccc(C(=O)N[C@H](c5ccccn5)C5CC5)cc34)cc2)CC1` [Example A351, (S)-N-(cyclopropyl(pyridin-2-yl)methyl)-3-(4-(4-(2-hydroxypropan-2-yl)piperidin-1-yl)phenyl)-1H-indazole-5-carboxamide], for which, on human TTK, the IC50 was less than 100 nM. Also, the GI50 in assay [1] (Homo sapiens, HCT-116) was less than 100 nM; in assay [2] (Homo sapiens, PA-1), less than 100 nM.

On to `CN1CC[C@@H](Oc2ccc(-c3n[nH]c4ccc(C(=O)NCC5(N6CCOCC6)CCCCC5)cc34)cc2)C1` [Example A481, (R)-3-(4-((1-methylpyrrolidin-3-yl)oxy)phenyl)-N-((1-morpholinocyclohexyl)methyl)-1H-indazole-5-carboxamide], for which, on human TTK, the 50% inhibitory concentration (IC50) was less than 100 nM. The GI50 in assay [1] (setting [3]) and in assay [2] (setting [4]) was 100 to 500 nM in each case.

For the compound `CC(C)(O)C(=O)N1CCC(Oc2ccc(-c3n[nH]c4ccc(C(=O)N[C@H](c5ccccc5)C5CC5)cc34)cc2)CC1` [Example A381, (S)-N-(cyclopropyl(phenyl)methyl)-3-(4-((1-(2-hydroxy-2-methylpropanoyl)piperidin-4-yl)oxy)phenyl)-1H-indazole-5-carboxamide], the IC50 at human TTK is less than 100 nM. In addition, the GI50 in assay [1] (Homo sapiens, HCT-116) lay in the range of 100 to 500 nM; in assay [2] (Homo sapiens, PA-1), 100 to 500 nM.

`O=C(NCC1(N2CCOCC2)CCCCC1)c1ccc2[nH]nc(-c3ccc(OC4CCN(C5COC5)CC4)cc3)c2c1` [Example A506, N-((1-morpholinocyclohexyl)methyl)-3-(4-((1-(oxelan-3-yl)piperidin-4-yl)oxy)phenyl)-1H-indazole-5-carboxamide]: the IC50 at human TTK was less than 100 nM. Moreover, the GI50 is less than 100 nM in assay [1] (Homo sapiens, HCT-116) and less than 100 nM in assay [2] (Homo sapiens, PA-1).

For `CN1C2COCC1CC(Oc1ccc(-c3n[nH]c4ccc(C(=O)N[C@H](c5ccccn5)C5CC5)cc34)cc1)C2` (stereo partly drawn) [Example A389, N-((S)-cyclopropyl(pyridin-2-yl)methyl)-3-(4-(((1R,5S,7s)-9-methyl-3-oxa-9-azabicyclo[3.3.1]nonan-7-yl)oxy)phenyl)-1H-indazole-5-carboxamide], the IC50 at human TTK was less than 100 nM. The GI50 in assay [1] (Homo sapiens, HCT-116) is less than 100 nM; in assay [2] (Homo sapiens, PA-1), less than 100 nM.

As to `O=C(NCC1(N2CCOCC2)CCCCC1)c1ccc2[nH]nc(-c3ccc(OC4CCN(CCO)CC4)cc3)c2c1` [Example A432, 3-(4-((1-(2-hydroxyethyl)piperidin-4-yl)oxy)phenyl)-N-((1-morpholinocyclohexyl)methyl)-1H-indazole-5-carboxamide], the IC50 at human TTK is less than 100 nM. For the same compound, the GI50 in assay [1] (Homo sapiens, HCT-116) was less than 100 nM; in assay [2] (Homo sapiens, PA-1) it was less than 100 nM.

With `C[C@@H]1CN(c2ccc(-c3n[nH]c4ccc(C(=O)NCC5(N6CCOCC6)CCCCC5)cc34)cc2)C[C@H](C)O1` [Example A454, 3-(4-((2S,6R)-2,6-dimethylmorpholino)phenyl)-N-((1-morpholinocyclohexyl)methyl)-1H-indazole-5-carboxamide], the IC50 at human TTK was less than 100 nM. For the same compound, the GI50 in assay [1] (setting [3]) and in assay [2] (setting [4]) was 100 to 500 nM throughout.

Regarding `O=C(NC(c1ccccn1)C1CC1)c1ccc2[nH]nc(-c3ccc(N4CCOCC4)cc3)c2c1` (stereo not drawn) [Example A383, N-(cyclopropyl(pyridin-2-yl)methyl)-3-(4-morpholinophenyl)-1H-indazole-5-carboxamide], the IC50 at human TTK is less than 100 nM. Moreover, the GI50 in assay [1] (Homo sapiens, HCT-116) lay in the range of 100 to 500 nM; in assay [2] (Homo sapiens, PA-1), 100 to 500 nM.
